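Tested at 5 concentrations; 48 h exposure; 96-well plates; endpoints linearly interpolated, else capped at highest concentration. At the GI50, growth is halved.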 Calls of active or inactive are those of the source. Rule as the data show it: active = GI50 up to about 1.1 µM and inactive = higher.
Legend:
Test in all cases: growth of human tumour cells (NCI), 48 h
HOP-62 = test system: HOP-62
UO-31 = test system: UO-31
M14 = test system: M14
NCI-H460 = test system: NCI-H460
MDA-MB-435 = test system: MDA-MB-435
NCI-H23 = test system: NCI-H23
HCT-116 = test system: HCT-116
DU-145 = test system: DU-145
SN12C = test system: SN12C
SK-OV-3 = test system: SK-OV-3
OVCAR-5 = test system: OVCAR-5
UACC-257 = test system: UACC-257
RPMI-8226 = test system: RPMI-8226
HOP-92 = test system: HOP-92
K562 = test system: K562
A498 = test system: A498
SF-539 = test system: SF-539
NCI/ADR-RES = test system: NCI/ADR-RES
IGROV-1 = test system: IGROV-1
SNB-75 = test system: SNB-75

Measured: GI50

N#Cc1c(=O)c2cccnc2n2c1[nH]c1ccccc12
inactive: HOP-62 41.4 µM | UO-31 48.6 µM | M14 90.2 µM | NCI-H460 69.2 µM | MDA-MB-435 > 100 µM | NCI-H23 38.7 µM | HCT-116 91.4 µM | DU-145 > 100 µM | SN12C > 100 µM | SK-OV-3 52.8 µM | OVCAR-5 > 100 µM | UACC-257 > 100 µM | RPMI-8226 > 100 µM | HOP-92 22.6 µM | K562 > 100 µM | A498 77.3 µM | SF-539 55.8 µM | NCI/ADR-RES 64.6 µM | IGROV-1 > 100 µM | SNB-75 50.5 µM

O=C(N1CCOCC1)C1(c2ccccc2)CCNCC1
inactive: HOP-62 > 100 µM | UO-31 > 100 µM | M14 > 100 µM | NCI-H460 > 100 µM | MDA-MB-435 > 100 µM | NCI-H23 > 100 µM | HCT-116 > 100 µM | DU-145 > 100 µM | SN12C > 100 µM | SK-OV-3 > 100 µM | OVCAR-5 > 100 µM | UACC-257 > 100 µM | RPMI-8226 > 100 µM | HOP-92 > 100 µM | K562 > 100 µM | A498 > 100 µM | SF-539 > 100 µM | NCI/ADR-RES > 100 µM | IGROV-1 > 100 µM | SNB-75 > 100 µM

Cc1ccc(Cl)c2c1NC(=O)/C2=N\Nc1ccccc1[N+](=O)[O-]
inactive: HOP-62 56.1 µM | UO-31 34.8 µM | M14 42.6 µM | NCI-H460 30.4 µM | MDA-MB-435 15.7 µM | NCI-H23 47.6 µM | HCT-116 36.3 µM | DU-145 47.1 µM | SN12C > 100 µM | SK-OV-3 > 100 µM | OVCAR-5 > 100 µM | UACC-257 82.2 µM | RPMI-8226 52.8 µM | HOP-92 42.5 µM | K562 39.4 µM | A498 > 100 µM | SF-539 21.3 µM | NCI/ADR-RES 57.1 µM | IGROV-1 6.53 µM | SNB-75 54.5 µM

CCOC(=O)CCC(C(=O)OCC)n1nc2ccc(Nc3c(C)[n+]([O-])c4cc(Cl)ccc4[n+]3[O-])cc2n1 (stereo not given)
inactive: HOP-62 > 100 µM | UO-31 81.8 µM | M14 > 100 µM | NCI-H460 24.3 µM | MDA-MB-435 69.7 µM | NCI-H23 > 100 µM | HCT-116 30.1 µM | DU-145 > 100 µM | SN12C 73.3 µM | SK-OV-3 > 100 µM | OVCAR-5 > 100 µM | UACC-257 94.4 µM | RPMI-8226 19.5 µM | HOP-92 27 µM | K562 82 µM | A498 > 100 µM | SF-539 > 100 µM | NCI/ADR-RES > 100 µM | IGROV-1 > 100 µM | SNB-75 > 100 µM

[O-][n+]1onc(-c2ccccc2)c1-c1no[n+]([O-])c1-c1c(-c2ccccc2)no[n+]1[O-]
inactive: HOP-62 14.9 µM | UO-31 7.4 µM | M14 12.1 µM | NCI-H460 3.27 µM | MDA-MB-435 2.34 µM | NCI-H23 3.72 µM | HCT-116 3.3 µM | DU-145 9.89 µM | SN12C 7.67 µM | SK-OV-3 43.8 µM | OVCAR-5 18.6 µM | UACC-257 13.1 µM | RPMI-8226 3.03 µM | HOP-92 10.6 µM | K562 2.51 µM | A498 13.9 µM | SF-539 21 µM | NCI/ADR-RES 3.98 µM | IGROV-1 8.83 µM | SNB-75 2.52 µM

COc1ccc(/C(C#N)=C/c2ccc(OC)c(OC)c2)cc1
inactive: HOP-62 > 100 µM | UO-31 > 100 µM | M14 > 100 µM | NCI-H460 > 100 µM | MDA-MB-435 83.4 µM | NCI-H23 > 100 µM | HCT-116 > 100 µM | DU-145 > 100 µM | SN12C > 100 µM | SK-OV-3 > 100 µM | OVCAR-5 > 100 µM | UACC-257 > 100 µM | RPMI-8226 > 100 µM | HOP-92 > 100 µM | K562 > 100 µM | A498 > 100 µM | SF-539 > 100 µM | NCI/ADR-RES > 100 µM | IGROV-1 > 100 µM | SNB-75 56.9 µM

C=CCc1cccc(C(=O)/C=C(O)/C=C/c2ccccc2Cl)c1O
active: IGROV-1 0.352 µM
inactive: HOP-62 16.6 µM | UO-31 9.18 µM | M14 24.5 µM | NCI-H460 24.9 µM | MDA-MB-435 12.4 µM | NCI-H23 6.12 µM | HCT-116 7.29 µM | DU-145 15.1 µM | SN12C 25.6 µM | SK-OV-3 23.6 µM | OVCAR-5 33.4 µM | UACC-257 13.8 µM | RPMI-8226 6.67 µM | HOP-92 25.6 µM | K562 2.11 µM | A498 21.2 µM | SF-539 7.43 µM | NCI/ADR-RES 11.5 µM | SNB-75 67.3 µM

Cc1nc2ccccc2n1C(=O)c1c(F)c(F)c(F)c(F)c1F
inactive: HOP-62 23.9 µM | UO-31 17 µM | M14 10.8 µM | NCI-H460 5.09 µM | MDA-MB-435 4.99 µM | NCI-H23 17 µM | HCT-116 4.14 µM | DU-145 26.5 µM | SN12C 6.01 µM | SK-OV-3 22.3 µM | OVCAR-5 19 µM | UACC-257 13.7 µM | RPMI-8226 4.15 µM | HOP-92 11.7 µM | K562 5.48 µM | A498 20.3 µM | SF-539 11.6 µM | NCI/ADR-RES 17.5 µM | IGROV-1 19.1 µM | SNB-75 25.4 µM

c1ccc(NN/N=N/c2ccc(-c3nc4ccccc4[nH]3)cc2)cc1
inactive: HOP-62 41.3 µM | UO-31 34.5 µM | M14 10.6 µM | NCI-H460 27 µM | MDA-MB-435 19.4 µM | NCI-H23 32.5 µM | HCT-116 28 µM | DU-145 42.7 µM | SN12C 32.2 µM | SK-OV-3 > 100 µM | OVCAR-5 > 100 µM | UACC-257 28.6 µM | RPMI-8226 14.2 µM | HOP-92 60.7 µM | K562 8.43 µM | A498 43.7 µM | SF-539 77.6 µM | NCI/ADR-RES 22.1 µM | IGROV-1 27.8 µM | SNB-75 23.8 µM
